Source: article PMC5557489, “Computational and experimental analysis of short peptide motifs for enzyme inhibition” (PLoS ONE, 2017)
Read-outs that look alike come from different tables or passages of the source. Ends that are not written are not given here.

Molecular target: T1, β-galactosidase (β-Gal) (Escherichia coli, UniProt P00722)
T1 construct: purchased Sigma (St. Louis, MO)
Experiment: biochemical
Type: biochemical
Description: Solution-based enzyme assays were performed on SpectraMax M5 96 well plate readers (Molecular Device, Sunnyvale, CA) as described previously.[13] Briefly, peptides were first incubated with enzyme for 20 minutes, then the substrate solution was added into the wells to measure the enzyme activity, including at least three replicates per peptide. The β-gal catalyzed hydrolysis of RBG was fluorescently monitored at 590 nm (resorufin) with the excitation at 540 nm. The velocity of the reaction was determined by the initial velocity of the linear reaction. The IC50 of each inhibitor was determined by fitting the concentration vs. inhibition curve to the function ‘Fit LogIC50’ as defined in the program GraphPad Prism 7 using the fitting equation “Y = Bottom+(Top-Bottom)/(1+10^(X-LogIC50))”.
The enzyme inhibition was also quantitatively characterized using the inhibition percentage that was calculated using the following equation: Inhibition Percentage = (Activityuninhibited− Activityinhibited)/ Activityuninhibited× 100% […]
Fluorescein di-β-D-galactopyranoside (FDG), resorufin β-D-galactopyranoside (RBG) and Alexa Fluor 647 (Alexa 647) were purchased from Invitrogen (Eugene, OR). Phenylethyl β-D-thiogalactoside (PETG), β-galactosidase (β-Gal), phosphate buffered saline (PBS) and tris buffered saline (TBS) were obtained from Sigma (St. Louis, MO). A 4 mg/mL stock solution of β-Gal was prepared in 10 mM potassium phosphate buffer with 0.1 mM MgCl2 at pH 7.4. A 2 mg/mL stock solution of peptide was first prepared in pure water, and then diluted in phosphate buffer to the desired concentration. Custom peptides were purchased from Sigma.

T1 sequence (P00722 2-1024): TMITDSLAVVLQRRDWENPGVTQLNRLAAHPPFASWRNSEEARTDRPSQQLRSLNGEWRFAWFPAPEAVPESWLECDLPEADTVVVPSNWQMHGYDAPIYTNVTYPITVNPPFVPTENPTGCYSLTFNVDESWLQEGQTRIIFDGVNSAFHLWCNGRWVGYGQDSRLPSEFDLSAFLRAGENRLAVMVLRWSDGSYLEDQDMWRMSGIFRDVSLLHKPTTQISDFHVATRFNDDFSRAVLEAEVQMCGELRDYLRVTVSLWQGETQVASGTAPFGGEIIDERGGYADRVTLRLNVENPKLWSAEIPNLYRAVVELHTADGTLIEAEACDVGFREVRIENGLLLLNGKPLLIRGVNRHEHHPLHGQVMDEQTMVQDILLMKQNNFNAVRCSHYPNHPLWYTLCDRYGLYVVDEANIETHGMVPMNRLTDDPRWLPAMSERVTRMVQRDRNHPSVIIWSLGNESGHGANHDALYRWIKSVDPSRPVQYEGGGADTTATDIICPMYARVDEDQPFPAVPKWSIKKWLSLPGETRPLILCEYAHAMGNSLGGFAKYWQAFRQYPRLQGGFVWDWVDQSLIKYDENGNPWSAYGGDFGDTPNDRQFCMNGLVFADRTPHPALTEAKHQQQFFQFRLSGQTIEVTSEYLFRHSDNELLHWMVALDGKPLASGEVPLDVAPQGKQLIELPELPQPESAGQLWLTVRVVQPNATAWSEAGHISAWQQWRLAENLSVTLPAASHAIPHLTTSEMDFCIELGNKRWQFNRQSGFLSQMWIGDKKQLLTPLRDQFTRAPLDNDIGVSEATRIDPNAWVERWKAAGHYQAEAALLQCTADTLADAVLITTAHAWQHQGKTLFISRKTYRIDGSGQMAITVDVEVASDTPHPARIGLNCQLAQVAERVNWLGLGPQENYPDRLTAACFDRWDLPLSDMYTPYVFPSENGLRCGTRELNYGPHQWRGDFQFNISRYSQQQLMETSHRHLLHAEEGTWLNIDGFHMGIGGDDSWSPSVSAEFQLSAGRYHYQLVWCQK

Molecule	IC50 [µM]	other results
OC[C@H]1O[C@@H](SCCc2ccccc2)[C@H](O)[C@@H](O)[C@@H]1O [PETG, phenylethyl β-D-thiogalactoside, reference compound]	–	IC50 (Fig 1, 100 μM RBG, β-Gal 150 μg/L, 25°C, three replicates, lead peptides previously selected from microarray [13], read-out: IC50 of peptide inhibition of β-Gal): ~35 µM
FKRYKRWGSC [nPEP-1]	~4	–
FKRYRRWGSC [nPEP-1-45]	~2.5	–
KKQGYYYKLGSC [shorter C-terminus motif of PEP-2 from truncation analysis]	–	normalized inhibition of β-Gal, truncation scan of PEP-2 (Fig 3B, normalized to the inhibition percentage value of PEP-2 at 50 μM, three replicates): inhibited β-Gal
PASMFSYFKKQGYYYKLGSC [PEP-2]	~13	–
RVFKRYKRWLHVSRYYFGSC [PEP-1]	~1.6	–
